Test results reported in ChEMBL document CHEMBL5104091, “Pyridazine as a privileged structure: An updated review on anticancer activity of pyridazine containing bioactive molecules” (Eur J Med Chem, 2021).
≈ marks a conversion by molar mass, not a printed value.

Assays:
[1] = tested on: PC-3; assay: Cytotoxicity against human PC-3 cells assessed as cell growth inhibition by MTT assay; assay type: functional, cell-based
[2] = Inhibition of tyrosine kinase (unknown origin); set-up: species or system Homo sapiens
[3] = tested on: MCF-12A; assay: Antiproliferative activity against human MCF-12A cells assessed as cell growth inhibition; assay type: functional, cell-based
[4] = tested on: MCF7; assay: Antiproliferative activity against human MCF7 cells assessed as cell growth inhibition; assay type: functional, cell-based
[5] = tested on: P815; assay: Cytotoxicity against mouse P815 cells assessed as cell growth inhibition measured after 48 hrs by MTT assay; assay type: functional, cell-based; conditions: P815, 48 h
[6] = tested on: MCF7; assay: Cytotoxicity against human MCF7 cells assessed as cell growth inhibition measured after 48 hrs by MTT assay; assay type: functional, cell-based; conditions: MCF7, 48 h
[7] = molecular target: Poly [ADP-ribose] polymerase 1 (Homo sapiens, UniProt P09874); assay: Displacement of [125I]KX1 from PARP1 in human OVCAR-8 cells incubated for 1 hr by wizard gamma counter analysis; assay type: cell-based
Chain of Poly [ADP-ribose] polymerase 1 (P09874 whole entry): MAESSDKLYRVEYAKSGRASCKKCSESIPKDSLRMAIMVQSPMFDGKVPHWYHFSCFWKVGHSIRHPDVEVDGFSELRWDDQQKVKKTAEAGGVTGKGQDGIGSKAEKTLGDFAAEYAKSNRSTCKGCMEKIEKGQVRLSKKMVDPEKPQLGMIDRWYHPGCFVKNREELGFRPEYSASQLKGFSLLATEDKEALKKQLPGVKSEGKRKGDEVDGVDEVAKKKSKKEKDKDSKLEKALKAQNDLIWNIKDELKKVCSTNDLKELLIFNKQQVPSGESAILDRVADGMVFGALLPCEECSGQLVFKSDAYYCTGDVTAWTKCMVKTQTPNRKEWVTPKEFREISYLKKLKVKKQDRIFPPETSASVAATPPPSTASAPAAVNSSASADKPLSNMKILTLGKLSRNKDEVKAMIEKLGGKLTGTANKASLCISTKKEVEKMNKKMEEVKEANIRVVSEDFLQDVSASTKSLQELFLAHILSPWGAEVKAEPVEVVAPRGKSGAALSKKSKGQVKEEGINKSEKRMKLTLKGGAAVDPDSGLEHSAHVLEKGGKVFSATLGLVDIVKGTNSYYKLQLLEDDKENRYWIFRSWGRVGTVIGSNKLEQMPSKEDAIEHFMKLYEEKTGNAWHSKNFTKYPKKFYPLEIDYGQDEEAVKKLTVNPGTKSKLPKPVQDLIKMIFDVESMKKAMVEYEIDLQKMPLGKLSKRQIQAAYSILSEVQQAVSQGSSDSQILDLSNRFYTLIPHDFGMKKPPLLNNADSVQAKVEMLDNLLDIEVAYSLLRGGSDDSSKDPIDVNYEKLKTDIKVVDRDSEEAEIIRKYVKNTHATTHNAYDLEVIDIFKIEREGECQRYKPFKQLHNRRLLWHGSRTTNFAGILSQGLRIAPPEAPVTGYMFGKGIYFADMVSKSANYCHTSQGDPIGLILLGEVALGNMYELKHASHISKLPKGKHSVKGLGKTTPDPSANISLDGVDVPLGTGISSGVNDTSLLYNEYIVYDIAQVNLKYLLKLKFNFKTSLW

[8] = molecular target: T1, Hepatocyte growth factor receptor (Homo sapiens, UniProt P08581); assay: Inhibition of human recombinant c-MET in presence of ATP by HTRF assay
T1 sequence (P08581 whole entry): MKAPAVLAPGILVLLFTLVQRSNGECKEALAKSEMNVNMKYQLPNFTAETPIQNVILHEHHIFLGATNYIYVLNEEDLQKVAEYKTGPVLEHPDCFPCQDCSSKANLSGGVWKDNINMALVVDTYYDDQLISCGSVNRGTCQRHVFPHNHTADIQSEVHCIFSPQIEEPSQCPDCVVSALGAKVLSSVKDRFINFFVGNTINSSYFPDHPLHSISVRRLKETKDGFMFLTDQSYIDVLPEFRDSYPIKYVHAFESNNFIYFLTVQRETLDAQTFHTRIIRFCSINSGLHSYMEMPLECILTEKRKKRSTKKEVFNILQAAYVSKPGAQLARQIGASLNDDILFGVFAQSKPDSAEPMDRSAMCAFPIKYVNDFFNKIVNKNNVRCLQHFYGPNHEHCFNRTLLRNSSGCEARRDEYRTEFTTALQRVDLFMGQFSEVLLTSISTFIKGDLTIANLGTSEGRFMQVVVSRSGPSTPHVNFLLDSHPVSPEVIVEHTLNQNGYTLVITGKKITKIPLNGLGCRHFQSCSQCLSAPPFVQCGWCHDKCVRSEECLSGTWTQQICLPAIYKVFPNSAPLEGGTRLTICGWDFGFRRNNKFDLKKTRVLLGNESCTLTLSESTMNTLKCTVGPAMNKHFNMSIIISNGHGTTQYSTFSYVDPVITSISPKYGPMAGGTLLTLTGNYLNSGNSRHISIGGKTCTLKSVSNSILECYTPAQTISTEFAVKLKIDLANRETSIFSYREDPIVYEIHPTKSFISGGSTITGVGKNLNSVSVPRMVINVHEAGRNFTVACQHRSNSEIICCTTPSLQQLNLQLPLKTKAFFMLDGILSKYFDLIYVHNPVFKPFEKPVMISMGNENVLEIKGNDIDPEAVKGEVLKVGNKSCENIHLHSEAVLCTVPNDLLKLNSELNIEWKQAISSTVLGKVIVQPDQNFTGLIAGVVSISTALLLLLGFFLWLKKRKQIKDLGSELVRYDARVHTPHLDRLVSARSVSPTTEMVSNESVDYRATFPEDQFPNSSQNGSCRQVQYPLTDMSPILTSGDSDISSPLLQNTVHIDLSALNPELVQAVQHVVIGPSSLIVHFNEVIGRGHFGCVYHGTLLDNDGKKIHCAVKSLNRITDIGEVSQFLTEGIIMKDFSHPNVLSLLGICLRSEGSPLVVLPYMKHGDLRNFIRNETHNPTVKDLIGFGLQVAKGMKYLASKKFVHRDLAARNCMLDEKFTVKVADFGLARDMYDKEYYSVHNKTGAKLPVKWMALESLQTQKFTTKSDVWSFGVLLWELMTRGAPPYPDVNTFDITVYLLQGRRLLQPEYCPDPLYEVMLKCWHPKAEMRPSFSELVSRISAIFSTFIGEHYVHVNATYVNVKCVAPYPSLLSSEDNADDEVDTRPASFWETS

[9] = molecular target: T2, Vascular endothelial growth factor receptor 2 (Homo sapiens, UniProt P35968); assay: Binding affinity to VEGFR2 (unknown origin) at 10 uM using ULight-4E-BP1 peptide as substrate incubated for 1 hr in presence of ATP by fluorescence based analysis relative to control
T2 sequence (P35968 whole entry): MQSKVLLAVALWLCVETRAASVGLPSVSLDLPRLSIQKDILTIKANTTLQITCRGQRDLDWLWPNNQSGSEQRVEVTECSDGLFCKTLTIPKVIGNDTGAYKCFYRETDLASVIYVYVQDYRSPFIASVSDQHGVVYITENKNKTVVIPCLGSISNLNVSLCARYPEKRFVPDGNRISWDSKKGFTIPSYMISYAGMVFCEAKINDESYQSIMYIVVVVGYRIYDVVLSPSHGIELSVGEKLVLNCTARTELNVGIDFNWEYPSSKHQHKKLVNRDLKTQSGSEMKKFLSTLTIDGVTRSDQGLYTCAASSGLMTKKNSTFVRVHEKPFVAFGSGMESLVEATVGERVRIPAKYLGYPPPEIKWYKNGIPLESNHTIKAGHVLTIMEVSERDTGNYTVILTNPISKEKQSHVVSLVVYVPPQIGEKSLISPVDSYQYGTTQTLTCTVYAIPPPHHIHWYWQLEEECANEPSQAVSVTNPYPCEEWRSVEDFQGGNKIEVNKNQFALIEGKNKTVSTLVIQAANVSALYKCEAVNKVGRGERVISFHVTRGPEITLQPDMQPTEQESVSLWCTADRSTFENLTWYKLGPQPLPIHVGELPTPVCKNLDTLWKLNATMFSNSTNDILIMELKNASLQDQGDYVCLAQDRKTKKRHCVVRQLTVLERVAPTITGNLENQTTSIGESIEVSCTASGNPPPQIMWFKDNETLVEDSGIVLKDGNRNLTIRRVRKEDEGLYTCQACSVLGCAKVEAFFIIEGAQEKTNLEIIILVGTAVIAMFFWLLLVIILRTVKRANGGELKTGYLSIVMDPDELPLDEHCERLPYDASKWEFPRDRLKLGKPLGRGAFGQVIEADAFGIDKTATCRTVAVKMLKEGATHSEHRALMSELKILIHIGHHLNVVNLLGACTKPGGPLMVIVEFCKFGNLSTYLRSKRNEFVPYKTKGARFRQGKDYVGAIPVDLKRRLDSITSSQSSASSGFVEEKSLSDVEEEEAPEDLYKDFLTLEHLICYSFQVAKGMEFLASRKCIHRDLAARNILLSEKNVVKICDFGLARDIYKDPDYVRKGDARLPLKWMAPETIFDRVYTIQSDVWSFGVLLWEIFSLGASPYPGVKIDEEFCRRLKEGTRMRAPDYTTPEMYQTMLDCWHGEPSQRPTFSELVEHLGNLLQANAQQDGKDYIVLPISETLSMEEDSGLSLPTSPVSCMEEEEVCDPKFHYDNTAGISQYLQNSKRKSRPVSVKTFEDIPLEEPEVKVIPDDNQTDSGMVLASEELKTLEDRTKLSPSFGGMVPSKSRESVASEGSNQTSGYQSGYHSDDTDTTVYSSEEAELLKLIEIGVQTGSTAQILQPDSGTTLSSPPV

[10] = tested on: MDA-MB-231; assay: Antiproliferative activity against human MDA-MB-231 cells assessed as cell growth inhibition measured after 48 hrs by WST-1 assay; assay type: functional, cell-based; conditions: MDA-MB-231, 48 h
[11] = molecular target: T1, Hepatocyte growth factor receptor; assay: Inhibition of MET (unknown origin) at 10 uM incubated for 60 mins by spectrophotometric analysis relative to control
[12] = organism: Homo sapiens; assay: Inhibition of WNT (unknown origin) at 10 uM measured after 24 hrs by TOPFlash reporter gene assay
[13] = tested on: HepG2; assay: Cytotoxicity against human HepG2 cells assessed as cell growth inhibition after 48 hrs by SRB assay; assay type: functional, cell-based; conditions: HepG2, 48 h
[14] = In vivo inhibition of VEGFR2 in Swiss albino mouse implanted with mouse Ehrlich cells incubated for 24 hrs by immunohistochemical staining based analysis relative to control; assay type: functional
[15] = molecular target: Vascular endothelial growth factor receptor 3 (Homo sapiens) (UniProt P35916); assay: Inhibition of VEGFR3 (unknown origin) at 10 uM by ELISA relative to control
Chain of Vascular endothelial growth factor receptor 3 (Homo sapiens) (P35916 whole entry): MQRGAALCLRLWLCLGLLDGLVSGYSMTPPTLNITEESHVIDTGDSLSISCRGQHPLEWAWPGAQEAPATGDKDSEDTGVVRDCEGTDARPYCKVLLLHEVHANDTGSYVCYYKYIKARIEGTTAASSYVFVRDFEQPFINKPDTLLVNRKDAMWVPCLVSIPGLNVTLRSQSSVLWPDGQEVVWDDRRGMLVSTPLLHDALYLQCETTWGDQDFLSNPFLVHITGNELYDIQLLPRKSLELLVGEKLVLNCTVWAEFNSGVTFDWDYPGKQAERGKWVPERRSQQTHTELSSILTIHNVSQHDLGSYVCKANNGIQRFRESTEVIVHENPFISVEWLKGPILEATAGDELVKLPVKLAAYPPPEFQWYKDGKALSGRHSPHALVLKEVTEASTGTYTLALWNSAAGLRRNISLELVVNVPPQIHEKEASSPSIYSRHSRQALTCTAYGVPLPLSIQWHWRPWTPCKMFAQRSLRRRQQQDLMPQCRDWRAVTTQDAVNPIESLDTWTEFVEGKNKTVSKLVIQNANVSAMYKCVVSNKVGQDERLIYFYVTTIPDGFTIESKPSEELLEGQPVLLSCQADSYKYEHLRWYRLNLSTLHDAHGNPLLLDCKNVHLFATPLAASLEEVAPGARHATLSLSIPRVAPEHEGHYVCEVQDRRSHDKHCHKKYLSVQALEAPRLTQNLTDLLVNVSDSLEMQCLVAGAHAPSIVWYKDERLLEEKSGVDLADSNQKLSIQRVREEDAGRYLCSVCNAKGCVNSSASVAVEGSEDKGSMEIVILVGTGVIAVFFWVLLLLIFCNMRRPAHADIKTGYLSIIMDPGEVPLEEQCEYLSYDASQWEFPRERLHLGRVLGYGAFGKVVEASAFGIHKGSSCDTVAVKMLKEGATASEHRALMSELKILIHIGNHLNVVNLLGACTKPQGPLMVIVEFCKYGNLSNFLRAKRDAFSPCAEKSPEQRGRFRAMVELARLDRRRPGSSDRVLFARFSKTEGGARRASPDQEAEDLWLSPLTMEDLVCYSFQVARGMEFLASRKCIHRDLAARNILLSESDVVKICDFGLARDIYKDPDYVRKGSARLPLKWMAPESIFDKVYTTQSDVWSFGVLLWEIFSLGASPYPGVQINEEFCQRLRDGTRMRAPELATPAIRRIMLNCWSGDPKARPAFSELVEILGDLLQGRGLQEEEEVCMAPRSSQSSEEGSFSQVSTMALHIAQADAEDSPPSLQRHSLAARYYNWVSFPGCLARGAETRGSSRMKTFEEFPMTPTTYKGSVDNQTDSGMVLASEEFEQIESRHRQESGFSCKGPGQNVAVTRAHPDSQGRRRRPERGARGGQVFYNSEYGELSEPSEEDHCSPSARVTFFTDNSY

[16] = tested on: KB; assay: Cytotoxicity against human KB cells assessed as cell growth inhibition; assay type: functional, cell-based
[17] = tested on: SK-MEL; assay: Cytotoxicity against human SK-MEL cells assessed as cell growth inhibition; assay type: functional, cell-based
[18] = molecular target: T2, Vascular endothelial growth factor receptor 2; assay: Inhibition of VEGFR2 (unknown origin) using poly (Glu,Tyr) 4:1 as substrate measured after 5 mins in presence of ATP by ELISA method
[19] = tested on: HCT-116; assay: Cytotoxicity against human HCT-116 cells assessed as cell growth inhibition measured after 48 hrs by SRB assay; assay type: functional, cell-based; conditions: HCT-116, 48 h
[20] = tested on: MCF7; assay: Cytotoxicity against human MCF7 cells assessed as cell growth inhibition measured after 72 hrs by MTT assay; assay type: functional, cell-based; conditions: MCF7, 72 h
[21] = tested on: A549; assay: Cytotoxicity against human A549 cells assessed as cell growth inhibition measured after 72 hrs by MTT assay; assay type: functional, cell-based; conditions: A549, 72 h
[22] = tested on: HepG2; assay: Cytotoxicity against human HepG2 cells assessed as cell growth inhibition measured after 72 hrs by MTT assay; assay type: functional, cell-based; conditions: HepG2, 72 h
[23] = tested on: MDA-MB-468; assay: Cytotoxicity against human MDA-MB-468 cells assessed as cell growth reduction measured after 48 hrs by MTT assay; assay type: functional, cell-based; conditions: MDA-MB-468, 48 h
[24] = tested on: ECa-109 cell line; assay: Antiproliferative activity against human EC109 cells assessed as inhibition of cell growth; assay type: functional, cell-based
[25] = tested on: MIA PaCa-2; assay: Antiproliferative activity against human MIA PaCa-2 cells assessed as cell growth inhibition by propidium iodide staining based fluorescence assay; assay type: functional
[26] = tested on: HT-29; assay: Antiproliferative activity against human HT-29 cells assessed as cell growth inhibition by propidium iodide staining based fluorescence assay; assay type: functional

NNc1nnc(-c2ccc(Oc3ccccc3)cc2)c2ccccc12
IC50 [1]: 12.2 µg/mL (≈ 37.2 µM)

Cc1cccc(NC(=S)NNC(=O)c2nnc3ccc(C)cc3c2N)c1
IC50 [2]: 550 nM
IC50 [3]: 48.7 µM
IC50 [4]: 180 nM

Cc1ccc2oc(Cc3cc(=O)[nH]nc3C)cc2c1
IC50 [5]: 35 µM
IC50 [6]: 14.5 µM

COC1CN(C(=O)c2cc(Cc3n[nH]c(=O)c4ccccc34)ccc2F)C1
IC50 [7]: 8.2 nM

Sc1nnc(-c2ccc(Oc3ccccc3)cc2)c2ccccc12
IC50 [1]: 9.22 µg/mL (≈ 27.9 µM)

Cn1cc(-c2ccc(=O)n(CC3CN(c4ncc(OCC5CCNCC5)cn4)CCO3)n2)cn1 (configuration not stated)
IC50 [8]: 19 nM

O=C(Nc1ccc(Cl)c(Cl)c1)Nc1nnc2ccc(Cl)nn12
Activity [9]: 3%

O=C(Nc1ccc(Cl)c(C(F)(F)F)c1)Nc1nnc2ccc(N3CCOCC3)nn12
Activity [9]: 3%

O=C1Nc2ccc(F)cc2/C1=N/Nc1nnc(-c2ccccc2)c2ccccc12
IC50 [10]: 12 µM

CC(=O)c1ccc(-c2ccc(=O)n(Cc3nc(-c4ncccn4)no3)n2)s1
inhibition [11]: 17%
inhibition [12]: 19%

O=C(Cn1nc(Cc2ccccc2)c2ccccc2c1=O)NNC(=S)Nc1ccccc1
IC50 [13]: 7.09 µg/mL (≈ 16 µM)

Cc1ccc(NC(=O)c2ccc(CN3CCN(C)CC3)cc2)cc1Nc1nccc(-c2cccnc2)n1 [IMATINIB]
inhibition (INH) [14]: 30%
inhibition [15]: 89.6%

O=C1Nc2ccc(F)cc2/C1=N/Nc1nnc(-c2ccc(Cl)cc2)c2ccccc12
IC50 [10]: 12 µM

Cc1n[nH]c(=O)cc1Cc1cc2ccccc2o1
IC50 [5]: 35 µM
IC50 [6]: 14.5 µM

O=c1c(CNc2ccccc2)cc(OS(=O)(=O)C(F)(F)F)nn1Cc1ccccc1
IC50 [16]: 2800 nM
IC50 [17]: 3.3 µM

O=C(NNc1nn2cnnc2c2ccccc12)Nc1ccccc1
IC50 [18]: 310 nM

C=CCNC(=S)Nc1cccc(Nc2ccc(Nc3ccc(S(=O)(=O)NC(=N)N)cc3)nn2)c1
IC50 [19]: 30.3 µM
inhibition (INH) [14]: 40%
inhibition [15]: 89.6%

O=c1c(CNc2ccccc2)cc(-c2ccccc2CO)nn1Cc1ccccc1
IC50 [16]: 2300 nM
IC50 [17]: 4.2 µM

COc1cc2c(Oc3ccc(NC(=O)c4nn(-c5ccccc5)ccc4=O)cc3F)ccnc2cc1OCCCN1CCN(C)CC1
IC50 [20]: 6 nM
IC50 [21]: 3 nM
IC50 [22]: 490 nM

O=C1Nc2ccccc2/C1=N/Nc1nnc(-c2ccc(Cl)cc2)c2ccccc12
IC50 [10]: 12 µM

CC1=Nc2c(nnc3ccc(C)cc23)C(=O)NN1
IC50 [2]: 220 nM
IC50 [4]: 49 nM

N=C(N)NS(=O)(=O)c1ccc(Nc2ccc(Nc3cccc(NC(=O)CCCl)c3)nn2)cc1
IC50 [19]: 39 µM
inhibition (INH) [14]: 10%
inhibition [15]: 89.6%

COC(=O)CNC(=O)Cn1nc(Cc2ccccc2)c2ccccc2c1=O
IC50 [13]: 5.7 µg/mL (≈ 15.6 µM)

Cc1n[nH]c(=O)cc1Cc1cc2cc(Cl)ccc2o1
IC50 [23]: 9.01 µM

CCc1ccc2oc(Cc3cc(=O)[nH]nc3C)cc2c1
IC50 [5]: 35 µM
IC50 [6]: 14.5 µM

O=c1[nH]cc(F)c(=O)[nH]1 [FLUOROURACIL]
IC50 [24]: 14.4 µM
IC50 [10]: 29.4 µM

COc1nc2ccc(C)cc2cc1Cc1cc(-c2ccccc2)n[nH]c1=O
IC50 [25]: 2200 nM
IC50 [26]: 4.5 µM

Cc1n[nH]c(=O)cc1Cc1cc2cc(C(C)C)ccc2o1
IC50 [5]: 35 µM
IC50 [6]: 14.5 µM
